Marks after values point to notes of the source that are not given here. One block for each compound: values may come before it.
Legend:
[1] = test system: mild and moderate asthmatics; conditions: cited from earlier work
[2] = test system: stable asthmatic adults maintained on inhaled corticosteroids; conditions: cited from earlier work
[3] = test system: mild/moderate asthmatics not treated with inhaled corticosteroids; assay: ARES study: R411 monotherapy, 12 week treatment period; assay type: in vivo, human; conditions: for % Asthma exacerbation / Asthma control Questionnaire (Total Score), change from baseline / Morning asthma symptoms, change from baseline / Nocturnal awakenings (scores), change from baseline / Rescue β 2-agonist use (puffs/d), change from baseline: 12 weeks, ITT population
Method: The ARES study illustrated in FIG. 4 was designed to evaluate the safety and efficacy of monotherapy R411 over a 12 week treatment period in 480 mild/moderate asthmatics not treated with inhaled corticosteroids. Patients were randomized to one of four cohorts: 50, 200, 600 mg QD R411, or placebo (n=120/group). The primary endpoint in the study was change in FEV1 from baseline, and secondary endpoints included PEFR, asthma exacerbations, β2-agonist use, asthma control questionnaire, asthma symptom scores, and nocturnal awakenings.
ARES study evaluated the safety and efficacy of monotherapy with R411 over a 12-week treatment period in 479 mild/moderate asthmatics not treated with inhaled corticosteroids. Patients were randomized to one of four cohorts: 50, 200, 600 mg once daily R411, or placebo.

[4] = test system: persistent asthmatics on low to medium inhaled corticosteroids; assay: Phase II add-on of R411 to inhaled corticosteroids (MARS study); assay type: in vivo, human; conditions: added to moderate dose inhaled corticosteroids, subpopulation with less well controlled asthma
From the text: As set out above, a second component in the solid pharmaceutical dosage form comprises a therapeutically effective amount of R411 (N-(2-chloro-6-methylbenzoyl)-4-[(2,6-dichlorobenzoyl)amino]-L-phenylalanine-2-(diethylamino)ethyl ester), or a pharmaceutically acceptable salt thereof. […] The MARS study illustrated in FIG. 3 was designed to evaluate the safety and efficacy of R411 over a 12 week treatment period in 350 persistent asthmatics being treated with a stable dose of low to medium inhaled corticosteroids and inhaled short acting […]. Patients were randomized to one of five cohorts: 50, 200, 600 mg once daily (QD) or 300 mg twice daily (BID) R411, or placebo (n=70/group). After a 2-week placebo run-in period and subsequent 2-week add-on period (R411 or placebo), morning inhaled corticosteroids were removed. Two weeks later, evening inhaled corticosteroids were removed, and patients remained in the treatment period for an additional 8 weeks. The primary endpoint in the study was the percentage change in FEV1 from baseline, and secondary endpoint included PEFR, asthma exacerbations, β2-agonist use, asthma control questionnaire, asthma symptom scores, nocturnal awakenings, FEF25-75 and rate of asthma treatment failures.

[5] = test system: atopic primate; assay: Airway inflammation in the atopic primate, oral R411; assay type: in vivo; conditions: oral administration, FIG. 6
[6] = test system: key inflammatory cells; assay: Migration of inflammatory cells from blood into lungs; conditions: in vivo
[7] = biological target: T1, α4 (Homo sapiens, UniProt P13612); assay: In vitro binding to α4 integrin
T1 sequence (P13612 34-1032): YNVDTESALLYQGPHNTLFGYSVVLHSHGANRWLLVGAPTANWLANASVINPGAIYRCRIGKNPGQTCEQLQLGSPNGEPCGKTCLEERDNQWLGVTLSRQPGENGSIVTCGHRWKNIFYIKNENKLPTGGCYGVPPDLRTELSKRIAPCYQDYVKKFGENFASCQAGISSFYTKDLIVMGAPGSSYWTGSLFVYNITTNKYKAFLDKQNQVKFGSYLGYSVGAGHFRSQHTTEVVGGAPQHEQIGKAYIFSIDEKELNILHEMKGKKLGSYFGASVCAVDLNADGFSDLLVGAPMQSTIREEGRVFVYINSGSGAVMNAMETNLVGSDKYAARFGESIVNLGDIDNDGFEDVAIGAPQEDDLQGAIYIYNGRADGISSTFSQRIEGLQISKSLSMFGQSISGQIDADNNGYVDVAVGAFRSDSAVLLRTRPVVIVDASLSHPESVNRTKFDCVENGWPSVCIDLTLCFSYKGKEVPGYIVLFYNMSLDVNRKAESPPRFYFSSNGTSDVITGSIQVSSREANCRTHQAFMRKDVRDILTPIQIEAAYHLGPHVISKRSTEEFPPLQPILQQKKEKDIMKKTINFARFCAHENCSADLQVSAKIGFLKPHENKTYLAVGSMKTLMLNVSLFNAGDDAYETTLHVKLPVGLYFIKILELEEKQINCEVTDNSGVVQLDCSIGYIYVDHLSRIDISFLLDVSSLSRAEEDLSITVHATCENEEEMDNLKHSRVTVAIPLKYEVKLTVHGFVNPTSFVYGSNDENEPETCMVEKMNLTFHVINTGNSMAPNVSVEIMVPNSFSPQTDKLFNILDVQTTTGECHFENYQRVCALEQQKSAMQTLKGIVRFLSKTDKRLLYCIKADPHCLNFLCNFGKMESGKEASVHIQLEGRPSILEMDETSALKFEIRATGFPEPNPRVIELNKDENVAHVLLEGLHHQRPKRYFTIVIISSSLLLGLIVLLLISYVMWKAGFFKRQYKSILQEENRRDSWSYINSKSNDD

[8] = biological target: α4/β1 to vascular cell adhesion molecule (VCAM-1) (Homo sapiens, UniProt P05556+P13612); assay: Inhibition of α4/β1 binding to VCAM-1
From the text: (§1) R411 inhibits the binding of α4/β1 to vascular cell adhesion molecule (VCAM-1) and α4/β7 to MadCAM-1 by […]. R411 is disclosed in U.S. Pat. No. 6,229,011, which disclosure is incorporated by reference herein.

[9] = biological target: T2, α4/β7 to MadCAM-1 (Homo sapiens, UniProt P13612+P26010); assay: Inhibition of α4/β7 binding to MadCAM-1
T2 sequence (P13612 34-1032): T1 sequence (P13612 34-1032)
T2 sequence (P26010 20-798): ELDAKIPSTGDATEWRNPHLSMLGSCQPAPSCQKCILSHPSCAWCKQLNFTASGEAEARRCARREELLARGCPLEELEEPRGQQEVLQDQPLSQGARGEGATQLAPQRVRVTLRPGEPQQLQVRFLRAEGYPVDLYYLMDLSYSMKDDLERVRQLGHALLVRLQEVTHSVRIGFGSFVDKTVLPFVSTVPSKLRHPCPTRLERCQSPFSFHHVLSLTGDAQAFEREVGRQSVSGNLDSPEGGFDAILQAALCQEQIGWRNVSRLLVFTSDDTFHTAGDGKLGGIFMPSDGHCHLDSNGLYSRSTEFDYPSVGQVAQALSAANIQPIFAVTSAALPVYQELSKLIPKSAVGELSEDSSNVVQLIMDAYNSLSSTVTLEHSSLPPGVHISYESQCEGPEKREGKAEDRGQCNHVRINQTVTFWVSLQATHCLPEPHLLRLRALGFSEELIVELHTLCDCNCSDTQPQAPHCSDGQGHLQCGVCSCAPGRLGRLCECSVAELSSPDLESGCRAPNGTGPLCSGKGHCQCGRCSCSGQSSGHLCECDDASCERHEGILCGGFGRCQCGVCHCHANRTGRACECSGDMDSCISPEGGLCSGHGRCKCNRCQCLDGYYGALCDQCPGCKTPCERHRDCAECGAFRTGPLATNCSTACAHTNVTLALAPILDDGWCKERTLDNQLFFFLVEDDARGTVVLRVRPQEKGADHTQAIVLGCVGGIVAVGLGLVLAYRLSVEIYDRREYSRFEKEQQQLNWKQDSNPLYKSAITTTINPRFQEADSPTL
From the text: as §1

[10] = test system: α4/β1 and α4/β7 integrins; assay: Integrin selectivity
[11] = From the text: The pharmaceutical dosage forms may also be formulated to provide a chronobiological synergy of the two compounds.
[12] = 50, 200, 600 mg once daily vs placebo

Chain of α4/β1 to vascular cell adhesion molecule (VCAM-1) (P05556 21-798, one chain of several): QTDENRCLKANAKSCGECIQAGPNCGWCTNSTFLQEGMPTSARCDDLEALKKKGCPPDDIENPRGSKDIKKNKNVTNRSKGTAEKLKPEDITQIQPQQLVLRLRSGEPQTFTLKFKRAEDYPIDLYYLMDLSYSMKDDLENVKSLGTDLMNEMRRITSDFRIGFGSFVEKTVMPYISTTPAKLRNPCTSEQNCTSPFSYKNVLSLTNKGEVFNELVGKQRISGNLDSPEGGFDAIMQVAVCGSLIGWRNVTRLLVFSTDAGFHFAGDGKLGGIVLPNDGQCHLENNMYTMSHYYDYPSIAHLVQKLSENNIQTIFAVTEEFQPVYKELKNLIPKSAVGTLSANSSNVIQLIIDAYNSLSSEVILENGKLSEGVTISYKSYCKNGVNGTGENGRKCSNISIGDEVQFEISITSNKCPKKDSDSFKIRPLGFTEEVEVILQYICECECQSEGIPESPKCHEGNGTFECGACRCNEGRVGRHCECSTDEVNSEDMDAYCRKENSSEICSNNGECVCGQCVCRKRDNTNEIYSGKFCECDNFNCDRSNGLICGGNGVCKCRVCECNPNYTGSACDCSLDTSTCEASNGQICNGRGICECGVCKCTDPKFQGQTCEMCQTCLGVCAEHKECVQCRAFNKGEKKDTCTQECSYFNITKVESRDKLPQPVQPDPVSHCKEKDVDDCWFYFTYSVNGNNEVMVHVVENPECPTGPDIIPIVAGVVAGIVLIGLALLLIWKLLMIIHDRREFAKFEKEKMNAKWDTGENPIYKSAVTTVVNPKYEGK

Structure (SMILES): CC(C)(O)c1ccccc1CC[C@@H](SCC1(CC(=O)[O-])CC1)c1cccc(/C=C/c2ccc3ccc(Cl)cc3n2)c1.[Na+] [montelukast, [R-(E)]-1-[[[1-[3-[2-(7-chloro-2-quinolinyl)ethenyl]phenyl]-3-[2-(1-hydroxy-1-methylethyl)phenyl]propyl]thio]methyl]cyclopropaneacetic acid, monosodium salt]
reduction of "as-needed" (beta)-agonist use from baseline ([1]; adult patients, placebo 4.6%): 26.1%
reduction of nocturnal awakenings from baseline ([1]; patients with nocturnal awakenings of at least 2 nights per week, combined analysis, placebo 15%): 34%
reduction in mean inhaled corticosteroid dose ([2]; 12-week active treatment period, placebo 30%): 47%
patients successfully tapered off inhaled corticosteroids ([2]; at conclusion of study, placebo 29%, p=NS): Approximately 40%

binding affinity ([7]; activated α4): high affinity
dissociation ([7]; activated α4): slow dissociation
dissociation ([7]; receptor not activated): more rapid
in vitro binding affinity ([7]; receptor not activated): lower
inhibition of binding of α4/β1 to VCAM-1 [8]: inhibits
inhibition of binding of α4/β7 to MadCAM-1 [9]: inhibits
acid/base character [11]: weak base
Structure (SMILES): CCN(CC)CCOC(=O)[C@H](Cc1ccc(NC(=O)c2c(Cl)cccc2Cl)cc1)NC(=O)c1c(C)cccc1Cl [R411, N-(2-Chloro-6-methylbenzoyl)-4-[(2,6-dichlorobenzoyl)amino]-L-phenylalanine-2-(diethylamino)ethyl ester]
% Asthma exacerbation ([3]; 200 mg once daily): 25.6%
Asthma control Questionnaire (Total Score), change from baseline ([3]; 200 mg once daily): −0.29 [2.08]
Morning asthma symptoms, change from baseline ([3]; 200 mg once daily): −0.34* [1.55]
Nocturnal awakenings (scores), change from baseline ([3]; 200 mg once daily): −0.15*/[0.61] scores
Rescue β 2-agonist use (puffs/d), change from baseline ([3]; 200 mg once daily): −0.36/[3.04] puffs/d
% Asthma exacerbation ([3]; 600 mg once daily): 26.10%
Asthma control Questionnaire (Total Score), change from baseline ([3]; 600 mg once daily): −0.23 [2.00]
Morning asthma symptoms, change from baseline ([3]; 600 mg once daily): −0.33* [1.57]
Nocturnal awakenings (scores), change from baseline ([3]; 600 mg once daily): −0.12*/[0.58] scores
Rescue β 2-agonist use (puffs/d), change from baseline ([3]; 600 mg once daily): −0.41*/[3.11] puffs/d
decrease in daytime asthma and nocturnal symptom score [3, 12]: Statistically significant improvements
reducing rescue albuterol use [3, 12]: Statistically significant improvements
Asthma Control Questionnaire Scores and Asthma Quality-of-Life ([3]; compared to placebo): Improvement
small airway flow rates as measured by FEF25-75 ([3]; monotherapy, FIG. 4): significant effect
reduction in asthma exacerbations ([3]; two highest doses of 200 and 600 mg): 26%
large airway flow rates as measured by FEV1 ([4]; FIG. 2): additive effect
small airway flow rates measured by FEF25-75 ([4]; FIG. 3): additive effect
airway inflammation [5]: attenuates airway inflammation
migration of key inflammatory cells from the blood into the lungs [6]: block the migration
integrin selectivity [10]: effective against both α4/β1 and α4/β7 integrins
solubility along the gastrointestinal tract [11]: higher solubility in the upper part of the gastrointestinal tract
